Results from patent US20220386606A1, “SPECIFICALLY SUBSTITUTED 3-PHENYL-5-SPIROCYCLOPENTYL-3-PYRROLIN-2-ONES AND THEIR USE AS HERBICIDES” (Bayer Aktiengesellschaft, priority 2019, published 2022).

Legend:
[1] = tested on: DIGSA; experiment: Pre-emergence herbicidal action against DIGSA; type: in vivo, Digitaria sanguinalis; settings: 320 g/ha, scored visually after 3 weeks vs untreated controls
Description: (§1) Seeds of monocotyledonous and dicotyledonous weed plants and crop plants are laid out in sandy loam soil in wood-fiber pots and covered with soil. The compounds of the invention, formulated in the form of wettable powders (WP) or as emulsion concentrates (EC), are then applied to the surface of the covering soil as aqueous suspension or emulsion at a water application rate equating to 600 to 800 L/ha with addition of 0.2% wetting agent.
(§2) After the treatment, the pots are placed in a greenhouse and kept under good growth conditions for the trial plants. The damage to the test plants is scored visually after a test period of 3 weeks by comparison with untreated controls (herbicidal activity in percent (%): 100% activity=the plants have died, 0% activity=like control plants).

[2] = tested on: LOLRI; experiment: Pre-emergence herbicidal action against LOLRI (Table 8, titled post-emergence at 320 g/ha); type: in vivo, Lolium rigidum; settings: table stands in the pre-emergence section
Description: as §1, §2

[3] = tested on: SETVI; experiment: Pre-emergence herbicidal action against SETVI; type: in vivo, Setaria viridis; settings: 320 g/ha, scored visually after 3 weeks vs untreated controls
Description: as §1, §2

[4] = tested on: ALOMY; experiment: Post-emergence herbicidal action against ALOMY; type: in vivo, Alopecurus myosuroides; settings: 80 g/ha, visual assessment after about 3 weeks
Procedure: (§3) Seeds of monocotyledonous and dicotyledonous weed and crop plants are laid out in sandy loam soil in wood-fiber pots, covered with soil and cultivated in a greenhouse under good growth conditions. 2 to 3 weeks after sowing, the test plants are treated at the one-leaf stage. The compounds of the invention, formulated in the form of wettable powders (WP) or as emulsion concentrates (EC), are then sprayed onto the green parts of the plants as aqueous suspension or emulsion at a water application rate equating to 600 to 800 l/ha with addition of 0.2% wetting agent. After the test plants have been left to stand in the greenhouse under optimal growth conditions for about 3 weeks, the action of the preparations is assessed visually in comparison to untreated controls (herbicidal action in percent (%): 100% activity=the plants have died, 0% activity=like control plants).

[5] = tested on: AVEFA; experiment: Post-emergence herbicidal action against AVEFA; type: in vivo, Avena fatua; settings: 80 g/ha, visual assessment after about 3 weeks
Procedure: as §3

[6] = tested on: DIGSA; experiment: Post-emergence herbicidal action against DIGSA; type: in vivo, Digitaria sanguinalis; settings: 80 g/ha, visual assessment about 3 weeks after treatment vs untreated controls
Procedure: as §3

[7] = tested on: ECHCG; experiment: Post-emergence herbicidal action against ECHCG; type: in vivo, Echinochloa crus-galli; settings: 80 g/ha, visual assessment about 3 weeks after treatment vs untreated controls
Procedure: as §3

[8] = tested on: LOLRI; experiment: Post-emergence herbicidal action against LOLRI; type: in vivo, Lolium rigidum; settings: 80 g/ha, visual assessment about 3 weeks after treatment vs untreated controls
Procedure: as §3

[9] = tested on: SETVI; experiment: Post-emergence herbicidal action against SETVI; type: in vivo, Setaria viridis; settings: 80 g/ha, visual assessment about 3 weeks after treatment vs untreated controls
Procedure: as §3

[10] = tested on: ALOMY; experiment: Pre-emergence herbicidal action against ALOMY; type: in vivo, Alopecurus myosuroides; settings: 320 g/ha, scored visually after 3 weeks vs untreated controls
Description: as §1, §2

[11] = tested on: ECHCG; experiment: Pre-emergence herbicidal action against ECHCG; type: in vivo, Echinochloa crus-galli; settings: 320 g/ha, scored visually after 3 weeks vs untreated controls
Description: as §1, §2

[12] = tested on: AVEFA; experiment: Pre-emergence herbicidal action against AVEFA; type: in vivo, Avena fatua; settings: 320 g/ha, scored visually after 3 weeks vs untreated controls
Description: as §1, §2

Row | SMILES | Pre-emergence action against DIGSA in % [1] [%] | Pre-emergence herbicidal action against LOLRI in % [2] [%] | Pre-emergence action against SETVI in % [3] [%] | Post-emergence action against ALOMY in % [4] [%] | Post-emergence action against AVEFA in % [5] [%] | Post-emergence action against DIGSA in % [6] [%] | Post-emergence action against ECHCG in % [7] [%] | Post-emergence action against LOLRI in % [8] [%] | Post-emergence action against SETVI in % [9] [%] | Pre-emergence action against ALOMY in % [10] [%] | Pre-emergence action against ECHCG in % [11] [%] | Pre-emergence action against AVEFA in % [12] [%]
1 | CC#Cc1cc(C)c(C2=C(O)C3(CCC(COC)C3)NC2=O)c(F)c1 (stereo not shown) [Example I-34] | 100 | 100 | 100 | 100 | 90 | 100 | 100 | 100 | 100 | – | – | –
2 | CC#Cc1cc(C)c(C2=C(O)C3(CCC(COCC)C3)NC2=O)c(F)c1 (stereo not shown) [Example I-37] | 90 | 100 | 100 | 100 | 100 | 100 | 100 | 90 | 100 | 80 | 100 | –
3 | CC#Cc1cc(F)c(C2=C(O)C3(CCC(COCC)C3)NC2=O)c(OC)c1 (stereo not shown) [Example I-43] | 100 | 100 | 100 | 100 | 90 | – | 100 | 90 | 100 | 100 | 100 | 100
4 | C=CCOCC1CCC2(C1)NC(=O)C(c1c(F)cc(C#CC)cc1OC)=C2O (stereo not shown) [Example I-54] | 100 | 100 | 100 | 100 | – | – | 100 | 90 | 100 | 100 | 100 | 80
5 | CC#Cc1cc(F)c(C2=C(O)C3(CCC(COCCC)C3)NC2=O)c(OC)c1 (stereo not shown) [Example I-56] | 100 | 100 | 100 | 90 | 90 | 90 | 100 | 80 | 100 | 80 | 100 | –
6 | CC#Cc1cc(F)c(C2=C(O)C3(CCC(COCCC)C3)NC2=O)c(OC)c1 (stereo not shown) [Example I-57] | 100 | 100 | 100 | – | – | 90 | 100 | 80 | 100 | 100 | 100 | –
7 | CC#Cc1cc(Br)c(C2=C(O)C3(CCC(COCC)C3)NC2=O)c(OCC)c1 (stereo not shown) [Example I-63] | 100 | 100 | 100 | 100 | 80 | 90 | 100 | 90 | 100 | 100 | 100 | 100
